GI50 and TGI data for nine compounds are collected here from PubChem BioAssay (NCI).

Each structure is given as a SMILES string.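 Five concentrations, 48 hours, 96-well plates. At the GI50, growth is halved. TGI denotes the concentration required for complete inhibition of growth.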 Where only a bound is given, the exact number is not on record here.

Among the test systems are RXF 393 renal; NCI-H522 lung; CAKI-1 renal; SF-295 CNS; HL-60(TB) leukemia; U251 CNS; MALME-3M melanoma; CCRF-CEM leukemia; KM12 colon; HCC-2998 colon.
Holding throughout (experiment): growth of human tumour cells (NCI), 48 h

Consider `COc1c(Nc2ncc(Cl)c(N[C@@H]3[C@H]4C=CC(C4)[C@@H]3C(N)=O)n2)ccc2c1CC[C@@H](N1CCOCC1)CC2`, for which the GI50 with RXF 393 renal was 1.64 µM; in the experiment with NCI-H522 lung, 5.47 µM; in the experiment with CAKI-1 renal it was 3.08 µM; with SF-295 CNS, 4.47 µM; with HL-60(TB) leukemia, 4.86 µM; in the experiment with U251 CNS, 3.2 µM. Besides, the GI50 with MALME-3M melanoma is 1.7 µM; in the experiment with CCRF-CEM leukemia, 5.25 µM; in the experiment on KM12 colon, 4.93 µM; with HCC-2998 colon it was 9.61 µM. The TGI turned out to be 6.54 µM in the experiment with RXF 393 renal; 15 µM in the experiment on NCI-H522 lung; 14.2 µM in the experiment on CAKI-1 renal; 17.8 µM in the experiment with SF-295 CNS; 20.6 µM in the experiment with HL-60(TB) leukemia; 15.7 µM with U251 CNS. In addition, the TGI came to 14.6 µM with MALME-3M melanoma, 39.2 µM in the experiment with CCRF-CEM leukemia, 25.2 µM with KM12 colon and 23.6 µM in the experiment on HCC-2998 colon.

In the case of `O=C1OCC2=C1C(c1ccccc1)c1cc3c(cc1N2CCO)CCC3` (centres undefined), the GI50 is 0.0597 µM in the experiment on RXF 393 renal; 0.0284 µM with NCI-H522 lung; 0.0868 µM in the experiment on CAKI-1 renal; 0.0677 µM in the experiment on SF-295 CNS; 0.0871 µM in the experiment with HL-60(TB) leukemia; 0.116 µM in the experiment with U251 CNS. Moreover, the GI50 with MALME-3M melanoma is 0.0609 µM; in the experiment on CCRF-CEM leukemia, 0.117 µM; with KM12 colon, 0.0793 µM; in the experiment on HCC-2998 colon it was 0.115 µM. For the same compound, the TGI in the experiment with RXF 393 renal is 0.138 µM; with NCI-H522 lung, 0.119 µM; in the experiment on CAKI-1 renal it was > 25 µM; in the experiment on HL-60(TB) leukemia, 1.94 µM; in the experiment on U251 CNS, > 25 µM; in the experiment with MALME-3M melanoma it was > 25 µM. Moreover, the TGI in the experiment with CCRF-CEM leukemia was > 25 µM; with KM12 colon, 0.922 µM; in the experiment on HCC-2998 colon, 0.941 µM.

As to `Cc1cc(=O)cc2sc3cc(Cl)ccc3nc1-2`, the TGI with RXF 393 renal was found to be 30 µM; in the experiment on NCI-H522 lung it was 7.65 µM; in the experiment with CAKI-1 renal, 46.7 µM; with SF-295 CNS, 26.6 µM; with HL-60(TB) leukemia, 26.2 µM; in the experiment on U251 CNS, 33.9 µM. The TGI turned out to be 39.7 µM in the experiment on MALME-3M melanoma, 37.5 µM in the experiment with CCRF-CEM leukemia, 24.5 µM with KM12 colon and 24.6 µM in the experiment on HCC-2998 colon.

As for `C[C@@]12CCC[C@@](C)(C(=O)O)C1CC[C@]13C=C(CO)[C@](O)(CCC12)C3` (some centres undefined), the GI50 in the experiment on RXF 393 renal, with NCI-H522 lung, in the experiment on CAKI-1 renal, with SF-295 CNS, with HL-60(TB) leukemia and in the experiment on U251 CNS was > 100 µM in each case. Moreover, the GI50 in the experiment with MALME-3M melanoma is > 100 µM; in the experiment with CCRF-CEM leukemia, 65.9 µM; with KM12 colon, > 100 µM; with HCC-2998 colon, > 100 µM. The TGI in the experiment with RXF 393 renal, in the experiment on NCI-H522 lung, in the experiment with CAKI-1 renal, in the experiment on SF-295 CNS, in the experiment with HL-60(TB) leukemia and with U251 CNS was > 100 µM in each case. Also, the TGI in the experiment on MALME-3M melanoma, in the experiment with CCRF-CEM leukemia, in the experiment with KM12 colon and in the experiment with HCC-2998 colon was > 100 µM in each case.

In the case of `O=C(/C=C/c1ccccc1O)c1ccccc1`, the GI50 is 10.3 µM with RXF 393 renal; 9.1 µM with NCI-H522 lung; 4.26 µM with CAKI-1 renal; 10.9 µM in the experiment on SF-295 CNS; 1.52 µM in the experiment with HL-60(TB) leukemia; 4.18 µM in the experiment on U251 CNS. In addition, the GI50 with MALME-3M melanoma was 5.5 µM; in the experiment on CCRF-CEM leukemia, 2.64 µM; in the experiment on KM12 colon, 1.77 µM; in the experiment with HCC-2998 colon, 17.9 µM. The TGI was determined as 23.4 µM in the experiment with RXF 393 renal; 22 µM with NCI-H522 lung; 20.8 µM with CAKI-1 renal; 26.4 µM in the experiment on SF-295 CNS; 11.1 µM with HL-60(TB) leukemia; 14.4 µM in the experiment with U251 CNS. For the same compound, the TGI in the experiment with MALME-3M melanoma was found to be 20.4 µM; in the experiment with CCRF-CEM leukemia, 8.19 µM; with KM12 colon it was 4.16 µM; in the experiment on HCC-2998 colon, 32.6 µM.

Take `C=CCOC1=C2CC[C@H](O)[C@@]2(C)CCC1=O`: the TGI in the experiment on RXF 393 renal, in the experiment on NCI-H522 lung, in the experiment with CAKI-1 renal, in the experiment with SF-295 CNS, with HL-60(TB) leukemia and with U251 CNS was > 100 µM in each case. In addition, the TGI in the experiment with MALME-3M melanoma, in the experiment on CCRF-CEM leukemia, in the experiment on KM12 colon and with HCC-2998 colon was > 100 µM throughout.

Turning to `COC1OC(COCc2ccc(Cl)cc2)C(OCc2ccc(Cl)cc2)C1O` (centres undefined), the TGI is 29.1 µM with RXF 393 renal; 27.5 µM in the experiment with NCI-H522 lung; 54.2 µM in the experiment on CAKI-1 renal; 32.3 µM with SF-295 CNS; 32.2 µM in the experiment with HL-60(TB) leukemia; 29.1 µM with U251 CNS. The TGI in the experiment on MALME-3M melanoma turned out to be 30.3 µM; in the experiment on CCRF-CEM leukemia, 46.7 µM; in the experiment with KM12 colon it was 29.3 µM; with HCC-2998 colon it was 32.6 µM.

With `Nc1ccccc1S(=O)c1ccccc1` (centres undefined), the TGI in the experiment with RXF 393 renal was > 100 µM; with NCI-H522 lung it was > 100 µM; with CAKI-1 renal, > 1 µM; in the experiment with SF-295 CNS, > 100 µM; in the experiment on HL-60(TB) leukemia it was > 100 µM; with U251 CNS, > 100 µM. In addition, the TGI with MALME-3M melanoma, with CCRF-CEM leukemia, in the experiment with KM12 colon and in the experiment on HCC-2998 colon was > 100 µM each time.

Take `S=C(Nc1ccc(-c2nc3ccccc3s2)cc1)Nc1ccccn1`: the GI50 is 33.1 µM with RXF 393 renal; 24.7 µM in the experiment with NCI-H522 lung; 17.3 µM in the experiment with CAKI-1 renal; 24.5 µM in the experiment on SF-295 CNS; 30.7 µM in the experiment with HL-60(TB) leukemia; 27.9 µM with U251 CNS. The GI50 with MALME-3M melanoma was 28.6 µM; with CCRF-CEM leukemia it was 25.5 µM; with KM12 colon, 21.9 µM; in the experiment with HCC-2998 colon it was 21.9 µM. In addition, the TGI in the experiment on RXF 393 renal is > 74.5 µM; with NCI-H522 lung it was > 61.3 µM; in the experiment on CAKI-1 renal, 45.7 µM; in the experiment on SF-295 CNS it was 66.3 µM; in the experiment on HL-60(TB) leukemia it was > 100 µM; with U251 CNS, > 100 µM. In addition, the TGI in the experiment on MALME-3M melanoma is 73.9 µM; in the experiment on CCRF-CEM leukemia, > 100 µM; with KM12 colon, > 70.8 µM; in the experiment on HCC-2998 colon it was 60.2 µM.
